The record followed here is publication PMC11195807, “Development of a multi-targeted chemotherapeutic approach based on G-quadruplex stabilisation and carbonic anhydrase inhibition” (Journal of Enzyme Inhibition and Medicinal Chemistry, 2024).

For one data set, the system named is GQ structures. The data set is described as follows: BG4 immunofluorescence of GQ foci, HeLa cells in normoxia. The format is cell-based. The settings on record: 24 h, 35.0 µM S-4,0, 40.0 µM C-4,2, 37.5 µM C-5,2, 2 µM RHPS4, over DMSO. From the text: After measuring the viability of HeLa cells upon treatment with the newly synthesised MTDLs mentioned above, we probed the capability of the three most cytotoxic ones (S-4,0, C-4,2, and C-5,2) to affect the formation of GQ structures by immunofluorescence (IF) microscopy, using the BG4 antibody that selectively recognises the GQ structures. As it can be noticed in Figure 6, the fluorescence intensity of the total number of GQ foci increased by around 30% after treatment with both the coumarin derivative C-4,2 and the reference GQ binder RHPS4, whereas it was not affected by S-4,0 and C-5,2. […] On the contrary, the levels of GQ structures were influenced neither by the treatment with the sulphonamide S-4,0 nor by the coumarin C-5,2, despite their ability to thermally stabilise some GQ-forming sequences in vitro.
Figure 6. (A) Representative fields showing G4 foci formation detected by immunofluorescence in HeLa cells treated for 24 h with 35.0 µM S-4,0, 40.0 µM C-4,2, and 37.5 µM C-5,2 or an equivalent amount of vehicle (0.1% DMSO). As a positive control, cells were treated with 2 µM RHPS4 (a well-established GQ ligand)[68] for 24 h. Scale bar: 10 µm. Upper panels: the merged channels of BG4-stained GQ structures (magenta) and Hoechst-counterstained nuclei (grey) are reported. Lower panels: enlargements from the pictures in the upper panels. (B) Quantitative analysis of the fluorescence intensity of the total number of GQ foci. An average of 50 cells were screened for each condition and the results are expressed as a fold change of fluorescence intensity (anti-GQ signal) over the negative control (DMSO). Histograms show the mean ± SD of three independent experiments. The statistical significance was calculated using a one-way ANOVA test on GraphPad Prism 8.0.2 (ns: not significant, **: p < 0.01).
For the IF experiments in the presence of normal oxygen levels, HeLa cells were seeded on sterile coverslips, in a 24-well plate, at a density of 90,000 cells per well, and incubated overnight. Then, cells were treated with a sublethal concentration of each investigated MTDL or an equivalent amount of vehicle (0.1% DMSO), for 24 h. As positive control, cells were exposed for 24 h to 2 µM RHPS4. As regards the IF experiments under hypoxic conditions, HeLa were seeded on sterile coverslips, in a 24-well plate, at a density of 50,000 cells per well, and incubated overnight. […] From there, the cellular and nuclear foci were segmented, and their number or fluorescence intensity was quantified by using the Image Analysis package of ZEISS ZEN 3.1 software.

Where a name gives a salt, the structure may show the parent alone.

In the case of `COc1ccc2cc3[n+](cc2c1OCc1cn(CCCCOc2ccc4ccc(=O)oc4c2)nn1)CCc1cc2c(cc1-3)OCO2` (as salt: phosphate) [Compound 43, 10-Methoxy-9-((1–(4-((2-oxo-2H-chromen-7-yl)oxy)butyl)-1H-1,2,3-triazol-4-yl)methoxy)-5,6-dihydro-[1,3]dioxolo[4,5-g]isoquinolino[3,2-a]isoquinolin-7-ium hexafluorophosphate], the melting point fell in the range of 124 to 125 °C.

The compound `COc1ccc2cc3[n+](cc2c1OCc1cn(CCCCCOc2ccc4ccc(=O)oc4c2)nn1)CCc1cc2c(cc1-3)OCO2` (as salt: phosphate) [Compound 44, 10-Methoxy-9-((1–(5-((2-oxo-2H-chromen-7-yl)oxy)pentyl)-1H-1,2,3-triazol-4-yl)methoxy)-5,6-dihydro-[1,3]dioxolo[4,5-g]isoquinolino[3,2-a]isoquinolin-7-ium hexafluorophosphate] had a melting point of 171 to 173 °C.

`COc1ccc2cc3[n+](cc2c1OCc1cn(-c2ccc4c(C)cc(=O)oc4c2)nn1)CCc1cc2c(cc1-3)OCO2` (as salt: phosphate) [Compound 45, 10-Methoxy-9-((1–(4-methyl-2-oxo-2H-chromen-7-yl)-1H-1,2,3-triazol-4-yl)methoxy)-5,6-dihydro-[1,3]dioxolo[4,5-g]isoquinolino[3,2-a]isoquinolin-7-ium hexafluorophosphate] registered a melting point of 280 to 282 °C.

For `COS(=O)(=O)[O-].Cc1cc2c3c([n+](C)c4ccc(F)cc4c3c1)-c1cc(F)ccc1N2C` [RHPS4, reference compound], the “increase of fluorescence intensity of the total number of GQ foci” value in the data set with GQ structures was “around 30%”.

In general, melting point refers to the temperature of the solid-liquid transition.
